Structures can show the parent of a compound that is named as a salt.

Results on 28 molecules are retold here after US9273057B2 (Bristol-Myers Squibb Company, priority 2012, dated 2016).

The target of this assay is CK2A1 (CK2α/β) (Homo sapiens, UniProt P68400). Briefly: CK2 kinase assay, CK2A1 (CK2α/β). It counts as biochemical. The following applies: Table A; read-out: CK2A1 (CK2α/β) (IC50).
Chain of CK2A1 (CK2α/β) (P68400 whole entry, species assumed): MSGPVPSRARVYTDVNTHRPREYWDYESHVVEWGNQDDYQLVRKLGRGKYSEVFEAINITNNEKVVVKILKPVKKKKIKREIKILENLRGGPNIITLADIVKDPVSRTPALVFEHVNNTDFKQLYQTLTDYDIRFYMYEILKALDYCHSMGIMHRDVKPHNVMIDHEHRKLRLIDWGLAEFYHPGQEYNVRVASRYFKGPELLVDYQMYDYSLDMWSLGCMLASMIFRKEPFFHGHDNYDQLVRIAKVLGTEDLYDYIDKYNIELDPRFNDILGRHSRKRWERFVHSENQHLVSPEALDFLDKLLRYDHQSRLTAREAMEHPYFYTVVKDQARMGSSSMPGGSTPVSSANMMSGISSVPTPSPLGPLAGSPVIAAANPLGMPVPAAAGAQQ
Chain of CK2A1 (CK2α/β) (P67870 whole entry partner, species assumed): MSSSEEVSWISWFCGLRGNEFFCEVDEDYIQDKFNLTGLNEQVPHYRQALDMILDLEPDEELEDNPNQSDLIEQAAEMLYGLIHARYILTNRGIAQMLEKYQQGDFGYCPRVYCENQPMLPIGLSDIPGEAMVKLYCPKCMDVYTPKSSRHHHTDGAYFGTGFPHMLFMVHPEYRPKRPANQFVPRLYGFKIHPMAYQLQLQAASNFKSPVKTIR
Regarding `CCNc1nc(Nc2cc(NC(=O)OC)cc(C3CCN(C)CC3)c2Cl)nn2c(C#N)cnc12` [Example 398, methyl (4-chloro-3-((7-cyano-4-(ethylamino)imidazo[2,1-f][1,2,4]triazin-2-yl)amino)-5-(1-methylpiperidin-4-yl)phenyl)carbamate], the IC50 came out at 3.3 nM.

`N#Cc1cc(C=O)c(Cl)c(Nc2nc(NC3CC3)c3ncc(C#N)n3n2)c1` [Example 400, 2-((2-chloro-5-cyano-3-formylphenyl)amino)-4-(cyclopropylamino)imidazo[2,1-f][1,2,4]triazine-7-carbonitrile]: the IC50 stood at 0.49 nM.

Turning to `CS(=O)(=O)N1CCN(Cc2cc(C#N)cc(Nc3nc(NC4CC4)c4ncc(C#N)n4n3)c2Cl)CC1` [Example 401, 2-((2-chloro-5-cyano-3-((4-(methylsulfonyl)piperazin-1-yl)methyl)phenyl)amino)-4-(cyclopropylamino)imidazo[2,1-f][1,2,4]triazine-7-carbonitrile], the IC50 is 0.38 nM.

`N#Cc1cc(CN2CCN(C3COC3)CC2)c(Cl)c(Nc2nc(NC3CC3)c3ncc(C#N)n3n2)c1` [Example 403, 2-((2-chloro-5-cyano-3-((4-(oxetan-3-yl)piperazin-1-yl)methyl)phenyl)amino)-4-(cyclopropylamino)imidazo[2,1-f][1,2,4]triazine-7-carbonitrile HCl salt]: the IC50 was 0.69 nM.

Take `N#Cc1cc(CN2CCOCC2)c(Cl)c(Nc2nc(NC3CC3)c3ncc(C#N)n3n2)c1` [Example 404, 2-((2-chloro-5-cyano-3-(morpholinomethyl)phenyl)amino)-4-(cyclopropylamino)imidazo[2,1-f][1,2,4]triazine-7-carbonitrile]: the IC50 stood at 0.54 nM.

As to `CN1CCN(C2CN(c3cc(OC(F)F)cc(Nc4nc(NC5CC5)c5ncc(C#N)n5n4)c3Cl)C2)CC1` [Example 405, 2-((2-chloro-5-(difluoromethoxy)-3-(3-(4-methylpiperazin-1-yl)azetidin-1-yl)phenyl)amino)-4-(cyclopropylamino)imidazo[2,1-f][1,2,4]triazine-7-carbonitrile], the IC50 was determined as 0.48 nM.

Regarding `N#Cc1cnc2c(NC3CC3)nc(Nc3cc(OC(F)F)cc(N4CCOCC4)c3Cl)nn12` [Example 406, 2-(2-chloro-5-(difluoromethoxy)-3-morpholinophenylamino)-4-(cyclopropylamino)imidazo[1,2-f][1,2,4]triazine-7-carbonitrile], the IC50 was 2.12 nM.

Take `N#Cc1cnc2c(NC3CC3)nc(Nc3cc(C(F)F)cc(C4CCN(C5COC5)CC4)c3Cl)nn12` [Example 407, 2-((2-chloro-5-(difluoromethyl)-3-(1-(3-oxetanyl)-4-piperidinyl)phenyl)amino)-4-(cyclopropylamino)imidazo[2,1-f][1,2,4]triazine-7-carbonitrile]: the IC50 came to 1.76 nM.

On to `N#Cc1cc(Nc2nc(NC3CC3)c3ncc(C#N)n3n2)c(Cl)cc1NC1CCNCC1` [Example 410, 2-((2-chloro-5-cyano-4-(piperidin-4-ylamino)phenyl)amino)-4-(cyclopropylamino)imidazo[2,1-f][1,2,4]triazine-7-carbonitrile], for which the IC50 is 0.68 nM.

In the case of `N#Cc1cc(Nc2nc(NC3CC3)c3ncc(C#N)n3n2)c(Cl)cc1NC1CCN(C2COC2)CC1` [Example 411, 2-((2-chloro-5-cyano-4-((1-(oxetan-3-yl)piperidin-4-yl)amino)phenyl)amino)-4-(cyclopropylamino)imidazo[2,1-f][1,2,4]triazine-7-carbonitrile], the IC50 was determined as 0.76 nM.

`CN(CCN)c1cc(Cl)c(Nc2nc(NC3CC3)c3ncc(C#N)n3n2)cc1C#N` [Example 412, 2-((4-((2-aminoethyl)(methyl)amino)-2-chloro-5-cyanophenyl)amino)-4-(cyclopropylamino)imidazo[2,1-f][1,2,4]triazine-7-carbonitrile]: the IC50 was determined as 0.43 nM.

For the molecule `CN(CCNC1COC1)c1cc(Cl)c(Nc2nc(NC3CC3)c3ncc(C#N)n3n2)cc1C#N` [Example 413, 2-((2-chloro-5-cyano-4-(methyl(2-(oxetan-3-ylamino)ethyl)amino)phenyl)amino)-4-(cyclopropylamino)imidazo[2,1-f][1,2,4]triazine-7-carbonitrile], the IC50 was 0.39 nM.

Take `N#Cc1cc(Nc2nc(NC3CC3)c3ncc(C#N)n3n2)c(F)cc1F` [Example 414, 2-((5-cyano-2,4-difluorophenyl)amino)-4-(cyclopropylamino)imidazo[2,1-f][1,2,4]triazine-7-carbonitrile]: the IC50 turned out to be 0.99 nM.

As to `N#Cc1cc(Nc2nc(NC3CC3)c3ncc(C#N)n3n2)c(F)cc1OCCN1CCOCC1` [Example 416, 2-((5-cyano-2-fluoro-4-(2-morpholinoethoxy)phenyl)amino)-4-(cyclopropylamino)imidazo[2,1-f][1,2,4]triazine-7-carbonitrile], the IC50 stood at 0.68 nM.

On to `N#Cc1cc(Nc2nc(NC3CC3)c3ncc(C#N)n3n2)c(F)cc1OC[C@@H]1COCCN1` [Example 417, (S)-2-((5-cyano-2-fluoro-4-(morpholin-3-ylmethoxy)phenyl)amino)-4-(cyclopropylamino)imidazo[2,1-f][1,2,4]triazine-7-carbonitrile], for which the IC50 was found to be 0.31 nM.

For the molecule `N#Cc1cc(Nc2nc(NC3CC3)c3ncc(C#N)n3n2)c(OCCN2CCOCC2)cc1F` [Example 421, 2-((5-cyano-4-fluoro-2-(2-morpholinoethoxy)phenyl)amino)-4-(cyclopropylamino)imidazo[2,1-f][1,2,4]triazine-7-carbonitrile], the IC50 was 0.61 nM.

Turning to `N#Cc1cc(Nc2nc(NC3CC3)c3ncc(C#N)n3n2)c(OCCN2CCOCC2)cc1OCCN1CCOCC1` [Example 422, 2-((5-cyano-2,4-bis(2-morpholinoethoxy)phenyl)amino)-4-(cyclopropylamino)imidazo[2,1-f][1,2,4]triazine-7-carbonitrile], the IC50 amounted to 2.73 nM.

As for `N#Cc1cc(Nc2nc(NC3CC3)c3ncc(C#N)n3n2)c(OC[C@@H]2COCCN2)cc1F` [Example 424, (S)-2-((5-cyano-4-fluoro-2-(morpholin-3-ylmethoxy)phenyl)amino)-4-(cyclopropylamino)imidazo[2,1-f][1,2,4]triazine-7-carbonitrile], the IC50 was determined as 5.12 nM.

Consider `N#Cc1cc(Nc2nc(NC3CC3)c3ncc(C#N)n3n2)c(Cl)c(OC2CCN(C3COC3)CC2)c1` [Example 425, 2-((2-chloro-5-cyano-3-((1-(oxetan-3-yl)piperidin-4-yl)oxy)phenyl)amino)-4-(cyclopropylamino)imidazo[2,1-f][1,2,4]triazine-7-carbonitrile], for which the IC50 came to 0.73 nM.

On to `CC1(N2CCC(Oc3cc(C#N)cc(Nc4nc(NC5CC5)c5ncc(C#N)n5n4)c3Cl)CC2)COC1` [Example 427, 2-((2-chloro-5-cyano-3-((1-(3-methyloxetan-3-yl)piperidin-4-yl)oxy)phenyl)amino)-4-(cyclopropylamino)imidazo[2,1-f][1,2,4]triazine-7-carbonitrile], for which the IC50 was 0.78 nM.

As to `CN1CCN(c2cc(Cl)c(Nc3nc(NC4CC4)c4ncc(C#N)n4n3)cc2C#N)CC1` [Example 432, 2-((2-chloro-5-cyano-4-(4-methyl-1-piperazinyl)phenyl)amino)-4-(cyclopropylamino)imidazo[2,1-f][1,2,4]triazine-7-carbonitrile], the IC50 came to 2.9 nM.

On to `N#Cc1cc(Nc2nc(NC3CC3)c3ncc(C#N)n3n2)c(Cl)c(OC[C@@H]2COCCN2)c1` [Example 439, (S)-2-((2-chloro-5-cyano-3-(morpholin-3-ylmethoxy)phenyl)amino)-4-(cyclopropylamino)imidazo[2,1-f][1,2,4]triazine-7-carbonitrile], for which the IC50 stood at 0.75 nM.

For `N#Cc1cc(Nc2nc(NC3CC3)c3ncc(C#N)n3n2)c(Cl)c(OCC2CNCCO2)c1` (stereo not shown) [Example 441, 2-((2-chloro-5-cyano-3-(morpholin-2-ylmethoxy)phenyl)amino)-4-(cyclopropylamino)imidazo[2,1-f][1,2,4]triazine-7-carbonitrile], the IC50 is 1.17 nM.

For `CN1CCC2CN(c3cc(C#N)cc(Nc4nc(NC5CC5)c5ncc(C#N)n5n4)c3Cl)CCC21` (stereo not shown) [Example 443, 2-((2-chloro-5-cyano-3-(1-methylhexahydro-1H-pyrrolo[3,2-c]pyridin-5(6H)-yl)phenyl)amino)-4-(cyclopropylamino)imidazo[2,1-f][1,2,4]triazine-7-carbonitrile], the IC50 is 2.93 nM.

As for `N#Cc1cc(Nc2nc(NC3CC3)c3ncc(C#N)n3n2)c(Cl)c(N2CCC3C(CCN3C3COC3)C2)c1` (stereo not shown) [Example 444, 2-((2-chloro-5-cyano-3-(1-(oxetan-3-yl)hexahydro-1H-pyrrolo[3,2-c]pyridin-5(6H)-yl)phenyl)amino)-4-(cyclopropylamino)imidazo[2,1-f][1,2,4]triazine-7-carbonitrile], the IC50 came out at 0.76 nM.

`COC(=O)N1CCC2CN(c3cc(C#N)cc(Nc4nc(NC5CC5)c5ncc(C#N)n5n4)c3Cl)CCC21` (stereo not shown) [Example 445, methyl 5-(2-chloro-5-cyano-3-((7-cyano-4-(cyclopropylamino)imidazo[2,1-f][1,2,4]triazin-2-yl)amino)phenyl)octahydro-1H-pyrrolo[3,2-c]pyridine-1-carboxylate]: the IC50 turned out to be 2.9 nM.

For the molecule `CC(=O)N1CCC2CN(c3cc(C#N)cc(Nc4nc(NC5CC5)c5ncc(C#N)n5n4)c3Cl)CCC21` (stereo not shown) [Example 446, 2-((3-(1-acetylhexahydro-1H-pyrrolo[3,2-c]pyridin-5(6H)-yl)-2-chloro-5-cyanophenyl)amino)-4-(cyclopropylamino)imidazo[2,1-f][1,2,4]triazine-7-carbonitrile], the IC50 stood at 3.48 nM.

Consider `N#Cc1cc(Nc2nc(NC3CC3)c3ncc(C#N)n3n2)c(Cl)c(N2CCC3C(CCN3C[C@@H](O)CF)C2)c1` (stereo partly drawn) [Example 448, 2-((2-chloro-5-cyano-3-(1-((R)-3-fluoro-2-hydroxypropyl)hexahydro-1H-pyrrolo[3,2-c]pyridin-5(6H)-yl)phenyl)amino)-4-(cyclopropylamino)imidazo[2,1-f][1,2,4]triazine-7-carbonitrile], for which the IC50 came out at 0.88 nM.
